pEC50, pIC50, pKi: −log10 of the molar value. *1 amine or outer side, *2 acyl side, *3 side chain or, on linkers, in order; H or OH if unused. Where a SMILES comes first, the peptide text is derived from it. [ ]: non-standard residue; d: D form. The star is where a group is joined. X1 = CCCCCCCCCCCCCCCC(=O)OCC(CCCC(N[*:1])C(=O)[*:2])OC(=O)CCCCCCCCCCCCCCC; X2 = CCCCCCCCCCCCCCCC(=O)OCC(C*)OC(=O)CCCCCCCCCCCCCCC; Palmitoyl = CCCCCCCCCCCCCCCC(=O)*
How the values were obtained:
Toll-like receptor 2 [1] = target: T1, Toll-like receptor 2 (Homo sapiens, UniProt O60603); assay: Agonist activity at human TLR2 transfected in HEK293 cells; type: cell-based
Toll-like receptor 2 [2] = target: T1, Toll-like receptor 2; assay: Agonist activity at human TLR2 transfected in HEK293 cells relative to control; type: cell-based
Toll-like receptor 2 [3] = target: T1, Toll-like receptor 2; assay: Agonist activity at TLR2 (unknown origin)
Toll-like receptor 2 [4] = target: T1, Toll-like receptor 2; assay: Binding affinity to TLR2 (unknown origin)
Toll-like receptor 1/2 [5] = target: T2, Toll-like receptor 1/2 (Homo sapiens, UniProt O60603+Q15399); assay: Agonist activity at TLR2/TLR1 (unknown origin); type: protein-complex assay
Toll-like receptor 1/2 [6] = target: T2, Toll-like receptor 1/2; assay: Agonist activity at TLR2/TLR1 (unknown origin) assessed as induction of IL-8 production relative to control; type: protein-complex assay; details: filed as agonist
TLR2/TLR6 (Homo sapiens) = TLR2/TLR6 (Homo sapiens) (UniProt O60603+Q9Y2C9); assay: Agonist activity at TLR2/TLR6 (unknown origin) assessed as induction of IL-8 production relative to control; type: protein-complex assay

T1 sequence (O60603 whole entry): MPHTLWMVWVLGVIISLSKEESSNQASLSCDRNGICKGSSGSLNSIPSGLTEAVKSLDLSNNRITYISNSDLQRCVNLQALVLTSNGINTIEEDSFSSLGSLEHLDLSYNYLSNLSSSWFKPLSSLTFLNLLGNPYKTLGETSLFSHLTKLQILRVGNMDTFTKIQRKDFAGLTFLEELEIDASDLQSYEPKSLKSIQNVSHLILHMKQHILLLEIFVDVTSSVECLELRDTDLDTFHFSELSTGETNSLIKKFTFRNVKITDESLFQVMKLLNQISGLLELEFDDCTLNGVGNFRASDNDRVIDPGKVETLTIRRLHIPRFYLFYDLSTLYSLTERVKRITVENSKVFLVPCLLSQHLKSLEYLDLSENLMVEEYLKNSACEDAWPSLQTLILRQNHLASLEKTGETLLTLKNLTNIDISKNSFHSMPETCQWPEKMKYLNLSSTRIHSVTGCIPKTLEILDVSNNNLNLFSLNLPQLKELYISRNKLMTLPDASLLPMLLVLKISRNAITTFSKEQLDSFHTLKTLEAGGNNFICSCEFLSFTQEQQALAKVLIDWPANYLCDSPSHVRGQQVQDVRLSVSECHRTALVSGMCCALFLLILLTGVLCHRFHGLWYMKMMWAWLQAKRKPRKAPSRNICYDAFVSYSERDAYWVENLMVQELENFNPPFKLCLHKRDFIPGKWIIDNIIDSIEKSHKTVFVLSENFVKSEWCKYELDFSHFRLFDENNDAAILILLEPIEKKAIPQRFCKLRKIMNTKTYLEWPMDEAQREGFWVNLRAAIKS
T2 sequence (O60603 whole entry): as above
T2 sequence (Q15399 whole entry): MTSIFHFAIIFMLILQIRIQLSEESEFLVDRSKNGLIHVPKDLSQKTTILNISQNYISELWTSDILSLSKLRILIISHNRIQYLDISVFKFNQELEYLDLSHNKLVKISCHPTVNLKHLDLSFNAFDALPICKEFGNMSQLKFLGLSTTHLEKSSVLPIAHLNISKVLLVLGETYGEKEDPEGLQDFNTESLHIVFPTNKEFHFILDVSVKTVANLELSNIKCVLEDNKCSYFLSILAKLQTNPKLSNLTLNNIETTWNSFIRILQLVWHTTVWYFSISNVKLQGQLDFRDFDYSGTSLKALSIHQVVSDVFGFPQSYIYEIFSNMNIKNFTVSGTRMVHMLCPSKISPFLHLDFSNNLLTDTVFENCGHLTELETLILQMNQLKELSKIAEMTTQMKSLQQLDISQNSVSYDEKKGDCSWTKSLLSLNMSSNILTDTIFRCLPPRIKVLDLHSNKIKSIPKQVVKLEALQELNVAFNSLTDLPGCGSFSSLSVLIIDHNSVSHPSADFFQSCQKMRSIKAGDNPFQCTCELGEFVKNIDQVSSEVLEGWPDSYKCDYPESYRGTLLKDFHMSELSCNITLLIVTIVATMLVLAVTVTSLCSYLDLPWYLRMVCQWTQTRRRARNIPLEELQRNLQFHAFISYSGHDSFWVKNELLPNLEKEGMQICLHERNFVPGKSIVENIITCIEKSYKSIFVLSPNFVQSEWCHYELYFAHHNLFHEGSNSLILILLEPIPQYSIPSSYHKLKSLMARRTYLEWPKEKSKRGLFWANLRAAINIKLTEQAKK

CCCCCCCCCCCCCCCC(=O)N[C@H](CSC[C@@H](COC(=O)CCCCCCCCCCC)OC(=O)CCCCCCCCCCC)C(=O)NCCOCCOCCOCCP(=O)(O)O
pEC50 (Toll-like receptor 2 [1]): < 4.00 | pEC50 (Toll-like receptor 2 [2]): < 4.00

CCCCCCCCCCCCOC[C@H](CSC[C@@H](N)C(=O)NCCOCCOCCOCCP(=O)(O)O)OCCCCCCCCCCCC
pEC50 (Toll-like receptor 2 [1]): 6.26 | pEC50 (Toll-like receptor 2 [2]): 6.26

CCCCCCCCCCCCCCCC(=O)OCCSC[C@H](NC(=O)COCC(=O)NCCCOCCOCCOCCCNc1ccc(C2=C(/C=C/C3=[N+](CC)c4ccccc4C3(C)C)CCC/C2=C\C=C2\N(CCC)c3ccccc3C2(C)C)cc1)C(=O)NCC(=O)N[C@H](CO)C(=O)COCC(=O)NCCCOCCOCCOCCCN
pIC50 (Toll-like receptor 2 [3]): 6.44 | pKi (Toll-like receptor 2 [4]): 7.80

CCCCCCCCCCCCCCCCOC[C@H](CSC[C@@H](N)C(=O)NCCOCCOCCOCCP(=O)(O)O)OCCCCCCCCCCCCCCCC
pEC50 (Toll-like receptor 2 [1]): 5.46 | pEC50 (Toll-like receptor 2 [2]): 5.46

CNc1ccc([N+](=O)[O-])cc1-n1cnc(-c2ccc(C(F)(F)F)cc2)c1
pEC50 (Toll-like receptor 1/2 [5]): 5.28

CCCCCCCCCCCCCCCC(=O)N[C@@H](CSCC(COC(=O)CCCCCCCCCCCCCCC)OC(=O)CCCCCCCCCCCCCCC)C(=O)N[C@@H](CCC(N)=O)C(=O)N1CCC[C@H]1C(=O)N[C@@H](CC(=O)O)C(=O)N[C@@H](CCCNC(=N)N)C(=O)N[C@@H](Cc1ccc(O)cc1)C(N)=O (some centres undefined) (Palmitoyl-C(X2)QPDRY-NH2)
Activity (Toll-like receptor 1/2 [6]): 93%

CCCCCCCCCCCCCCCC(=O)N[C@H](CSC[C@@H](COC(=O)NCCCCCCCCCC)OC(=O)NCCCCCCCCCC)C(=O)NCCOCCOCCOCCP(=O)(O)O
pEC50 (Toll-like receptor 2 [1]): 5.58 | pEC50 (Toll-like receptor 2 [2]): 5.58

CCCCCCCCCCCC[C@H](CSC[C@@H](N)C(=O)NCCOCCOCCOCCP(=O)(O)O)OC(=O)NCCCCCCCCCCC
pEC50 (Toll-like receptor 2 [1]): < 4.00 | pEC50 (Toll-like receptor 2 [2]): < 4.00

CCCCCCCCNC(=O)OC[C@H](CSC[C@@H](N)C(=O)NCCOCCOCCOCCP(=O)(O)O)OC(=O)NCCCCCCCC
pEC50 (Toll-like receptor 2 [1]): 5.15 | pEC50 (Toll-like receptor 2 [2]): 5.15

CCCCCCCCCCCCCCCC(=O)NC(CCCC(COC(=O)CCCCCCCCCCCCCCC)OC(=O)CCCCCCCCCCCCCCC)C(=O)N[C@@H](CO)C(=O)N[C@@H](CO)C(=O)N[C@@H](CC(N)=O)C(=O)N[C@@H](C)C(=O)N[C@@H](CO)C(=O)N[C@@H](CCCCN)C(=O)N[C@@H](CCCCN)C(=O)N[C@@H](CCCCN)C(=O)N[C@@H](CCCCN)C(=O)O (some centres undefined) (Palmitoyl-[X1]SSNASKKKK-OH)
Activity (TLR2/TLR6 (Homo sapiens)): 23%

CCCCCCCCCCNC(=O)OC[C@H](CSC[C@@H](NC(C)=O)C(=O)NCCOCCOCCOCCP(=O)(O)O)OC(=O)NCCCCCCCCCC
pEC50 (Toll-like receptor 2 [1]): 6.08 | pEC50 (Toll-like receptor 2 [2]): 6.08

CNc1ccc([N+](=O)[O-])cc1-n1cnc(-c2ccc([N+](=O)[O-])cc2)c1
pEC50 (Toll-like receptor 1/2 [5]): 5.60

CCCCCCCCCCCCCCCC(=O)OCCSC[C@H](NC(=O)COCC(=O)NCCCOCCOCCOCCCNC)C(=O)NCC(=O)N[C@H](CO)C(=O)COCC(=O)NCCCOCCOCCOCCCN
pEC50 (Toll-like receptor 2 [3]): 6.17 | pKi (Toll-like receptor 2 [4]): 7.66

CCCCCCCCCCCCCCCC(=O)OC[C@H](CSC[C@H](NC(=O)COCC(=O)NCCCOCCOCCOCCCNC(C)=O)C(=O)NCC(=O)N[C@H](CO)C(=O)COCC(=O)NCCCOCCOCCOCCCN)OC(=O)CCCCCCCCCCCCCCC
pEC50 (Toll-like receptor 2 [3]): 7.70 | pKi (Toll-like receptor 2 [4]): 7.04

CCCCCCCCCCNC(=O)OC[C@H](CSC[C@@H](NC(=O)CCCCC)C(=O)NCCOCCOCCOCCP(=O)(O)O)OC(=O)NCCCCCCCCCC
pEC50 (Toll-like receptor 2 [1]): 6.08 | pEC50 (Toll-like receptor 2 [2]): 6.08

CCCCCCCC(=O)OC[C@H](CSC[C@@H](N)C(=O)NCCOCCOCCOCCP(=O)(O)O)OC(=O)CCCCCCC
pEC50 (Toll-like receptor 2 [1]): 5.52 | pEC50 (Toll-like receptor 2 [2]): 5.52

CCCCCCCCCCCCCCCC(=O)OCCC[C@H](CS[C@H](N)C(=O)N[C@@H](CO)C(=O)N[C@@H](CCCCN)C(=O)N[C@@H](CCCCN)C(=O)N[C@@H](CCCCN)C(=O)N[C@@H](CCCCN)C(=O)N[C@@H](CO)C(=O)N[C@@H](CC(C)C)C(=O)N[C@@H](CC(C)C)C(=O)N[C@@H](CCSC)C(=O)N[C@@H](Cc1c[nH]c2ccccc12)C(=O)N[C@H](C(=O)N[C@H](C(=O)N[C@@H](CCC(N)=O)C(=O)N[C@H](C(=O)O)C(C)C)[C@@H](C)O)[C@@H](C)CC)OC(=O)CCCCCCCCCCCCCCC
pEC50 (Toll-like receptor 2 [3]): 6.42

CCCCCCCCCCCCCC(=O)OC[C@H](CSC[C@@H](N)C(=O)NCCOCCOCCOCCP(=O)(O)O)OC(=O)CCCCCCCCCCCCC
pEC50 (Toll-like receptor 2 [1]): 8.20 | pEC50 (Toll-like receptor 2 [2]): 8.20

CCCCCCCCCCCCCCCC(=O)N[C@@H](CSCC(COC(=O)CCCCCCCCCCCCCCC)OC(=O)CCCCCCCCCCCCCCC)C(=O)N[C@@H](CCCNC(=N)N)C(=O)N1CCC[C@H]1C(=O)N[C@@H](CC(=O)O)C(=O)N[C@@H](CCCNC(=N)N)C(=O)N[C@@H](Cc1ccc(O)cc1)C(N)=O (some centres undefined) (Palmitoyl-C(X2)RPDRY-NH2)
Activity (Toll-like receptor 1/2 [6]): 112%

CCCCCCCCCCNC(=O)OC[C@H](CSC[C@@H](N)C(=O)NCCOCCOCCOCCP(=O)(O)O)OC(=O)NCCCCCCCCCC
pEC50 (Toll-like receptor 2 [1]): 6.09 | pEC50 (Toll-like receptor 2 [2]): 6.09

Reference: ChEMBL document CHEMBL5226282, “TLR2 Agonistic Small Molecules: Detailed Structure-Activity Relationship, Applications, and Future Prospects” (J Med Chem, 2021)
